# Assay results: ChEMBL document CHEMBL3507680, “University of Dundee, Gates Library screen for HepG2 cell viability”
# Test: Human HepG2 cell viability assay in 384 well format
# Format: toxicity, cell-based
# Design: dose 125 nL, time 70.5 hour; concentration not given beside the values
# Conditions: HepG2 cells, read-out: Inhibition
row,SMILES,cytotoxicity at 70.5 h [%]
1,CC1CCCCN1CCNC(=O)c1ccn(-c2cccc(F)c2)n1 (centres undefined),-0.176
2,NS(=O)(=O)c1cccc(CNc2nccc(C(F)(F)F)n2)c1,-5.9
3,CC(C)COCC(NC(=O)c1cnccn1)c1ccco1 (centres undefined),-10.5
4,O=C(NCCc1ccccn1)C1CC(=O)N(CC(F)(F)F)C1 (centres undefined),-2.42
5,CCCOc1cc(C)ccc1NC(=O)N(C)Cc1cnn(C)c1,-4.07
6,Cc1ccc(F)c(NC(=O)NCCCn2nc3ccccn3c2=O)c1,-3.3
7,CCc1nccn1C1CCCN(C(=O)c2ccoc2C)C1 (centres undefined),1.06
8,Cc1ccc(CC(=O)N2CCCC2Cn2nc(C)cc2C)cn1 (centres undefined),-11.5
9,Cc1ccc(CC(=O)N2CCN(c3nccs3)CC2)s1,14.7
10,Cc1cc(C(=O)NC(COCC(C)C)c2ccco2)no1 (centres undefined),-1.3
11,c1ncn(CC2CCCN(Cc3csc(-c4ccsc4)n3)C2)n1 (centres undefined),2.18
12,CC(Cn1cccn1)NCc1csc(COc2ccc(F)cc2)n1 (centres undefined),-1.54
13,CCCc1nc(CNC(C)Cn2cccn2)cs1 (centres undefined),3.08
14,c1ccc2oc(CCCN3CCCC3c3noc(C4CC4)n3)nc2c1 (centres undefined),17.9
15,CC(C)C1CCCN1CCCc1nc(-c2cccs2)no1 (centres undefined),2.81
16,CC(O)CN1CCC(CNCc2cccc(Cl)c2)CC1 (centres undefined),12.3
17,COc1ccc(C(=O)N2CCCCC2c2nccs2)c(OC)c1 (centres undefined),-6.39
18,Cc1noc(C)c1CN1CCCC(c2noc(C3CC3)n2)C1 (centres undefined),-7.9
19,CCCc1nc(CN2CCCC(c3noc(C4CC4)n3)C2)no1 (centres undefined),-4.77
20,COc1ccc(CCCNCc2c(C)nn(C)c2N(C)C)cc1OC,4.5

row,SMILES,cytotoxicity at 70.5 h [%]
1,Cc1ccc(S(=O)(=O)NC(=O)CCC2CCCO2)cc1 (centres undefined),0.693
2,O=C(CN1CCCC1c1cccs1)N1CCc2sccc2C1 (centres undefined),-0.311
3,COc1cccc(S(=O)(=O)NC(=O)CCC2CCCO2)c1 (centres undefined),1.07
4,COc1cc(CNCc2c(C)nn(C)c2N(C)C)ccc1OCCO,5.42
5,O=C(NCCOC1CCCC1)c1ccc(-c2ccco2)[nH]c1=O,-2.19
6,O=C1COc2c(cccc2C(=O)N2CCCC(n3cccn3)C2)N1 (centres undefined),23.6
7,CC(O)CN1CCC(CNCc2ccc(C(N)=O)cc2)CC1 (centres undefined),-0.474
8,Cc1ccc(CC(=O)N2CCN(C3CCOC3=O)CC2)cc1 (centres undefined),-1.49
9,c1csc(-c2noc(CN3CCCC3Cn3cccn3)n2)c1 (centres undefined),-2.35
10,Cn1nc2c(cc1=O)CN(Cc1coc(-c3ccc(F)cc3)n1)CC2,14.8
11,Cn1nc2c(cc1=O)CN(Cc1coc(-c3cccc(F)c3)n1)CC2,-2.83
12,COc1ccc(COCC(=O)N2CCCC(n3cncn3)C2)cc1 (centres undefined),19.2
13,c1ccc(OCCN2CCCCC2Cn2cncn2)cc1 (centres undefined),23.7
14,O=C(NCc1nncn1-c1ccccc1)C1CCCC1,-4.48
15,O=C(NCc1nncn1-c1ccccc1)C1CCCCC1,-0.117
16,COc1ccc(CNC(=O)Nc2cccnc2N2CCCC2)cc1,20.6
17,CC(NC(=O)CCCOc1ccc(F)cc1)c1nnc2n1CCC2 (centres undefined),-1.76
18,NC(=O)N1CCC(C(=O)NCc2nncn2-c2ccccc2)CC1,1.01
19,Cc1cnn(CC2CN(Cc3nc(-c4ccco4)no3)CCO2)c1 (centres undefined),-0.209
20,O=C(NCC(=O)N1CCCC(n2cncn2)C1)OCc1ccccc1 (centres undefined),-0.265

row,SMILES,cytotoxicity at 70.5 h [%]
1,Cc1ccc(CCC(=O)N2CCCC(c3cc(C(N)=O)[nH]n3)C2)cc1 (centres undefined),0.115
2,COc1ccccc1C1(C(=O)N2CCCC(c3cc(C)[nH]n3)C2)CC1 (centres undefined),-0.122
3,CCOCC(O)CN1CCN(C(=O)C2CCCC2)CC1 (centres undefined),-0.535
4,Cc1ccc(N2CCCC(NCc3cccs3)C2)nn1 (centres undefined),-1.01
5,Cc1ccc(N2CCCC(NCc3ccc4c(c3)OCCO4)C2)nn1 (centres undefined),1.38
6,c1cnn(CC2CN(Cc3nc(-c4ccoc4)no3)CCO2)c1 (centres undefined),24.3
7,Cc1ccc(N2CCCC(NCC3=Cc4ccccc4OC3)C2)nn1 (centres undefined),-5.84
8,Cc1cnn(CC2CN(Cc3nc(-c4ccccn4)no3)CCO2)c1 (centres undefined),2.23
9,Cc1nn(C)c(Cl)c1C1CCCN1CC(=O)Nc1cccnc1 (centres undefined),-6.29
10,COc1cccc(COCC(=O)N2CCCC(n3cncn3)C2)c1 (centres undefined),-1.04
11,CCOCC(O)CN1CCN(C(=O)C2CCCCC2)CC1 (centres undefined),-0.878
12,Cc1nc(C)n(C2CCCN(C(=O)c3ncoc3C(C)C)C2)n1 (centres undefined),-11.1
13,CC(C)Oc1ncccc1CNC(=O)c1cnccn1,-5.94
14,CS(=O)(=O)NCC1CCCN(C(=O)c2ccco2)C1 (centres undefined),-6.79
15,Cc1cnn(CCNCc2cccnc2)c1,-1.13
16,CC(C)n1ccnc1CN1CCCN(C(=O)COC2CCCC2)CC1,-3.66
17,CC(C)(C)n1ncc2c1CCCC2NCc1cccc2c1OCO2 (centres undefined),-1.84
18,Cc1nc(C2CCCN(C(=O)c3cccc(S(C)(=O)=O)c3)C2)no1 (centres undefined),-9.98
19,CCn1ncc2c1CCCC2NCC1=Cc2ccccc2OC1 (centres undefined),-12.8
